Data as given in US4629740A, “Anticonvulsant agents” (Eli Lilly and Company, priority 1984, dated 1986).

How the values were obtained:
[1] = in vivo; set-up: species or system mice; conditions: mouse, po
Method: (§1) The compounds were also evaluated for determining toxic potential. In determining toxic potential as manifested by neurological deficit, ataxia, or sedation, the "horizontal screen" (H.S.) was employed. This test is well accepted as a measure of impaired motor function in mice. The methodology was identical to that taught by Coughenour, et al., Pharmacology, Biochemistry and Behavior, 6, 351 (1977). For each compound, the ED50 was determined as the dose which caused one half of the animals to fail to reach the top of the screen. The compounds were administered to the mice in the same manner as described above for the electroshock assay 60 minutes before they were tested in the horizontal screen assay.

[2] = protective index (P.I.), ratio of horizontal screen ED50 over electroshock ED50; type: in vivo, mice; conditions: mouse, in vivo, po; mice, gavage; read-out: Protective Index (H.S. ED50 /E.S. ED50)
Method: (§2) In the electroshock induced convulsion inhibition assay (E.S.), the compound to be tested was dissolved in water (5%--sufficient hydrochloric acid was added for those compounds which were not isolated as a salt in order to effect dissolution) and administered by gavage to each of three Cox standard strain albino male mice (18-24 g.) at the dose level being investigated. Sixty minutes after compound administration, the mice were subjected to a 0.1 second, 50 milliampere electroshock through corneal electrodes. The animals were examined and evaluated immediately after the electroshock for the occurrence of clonic, flexor tonic, or extensor tonic convulsions, or death and the ED50 was determined for each compound as the dose which inhibited the occurrence of extensor tonic convulsions in one half of the animals immediately after the electroshock. For comparison, 18 milliamperes was usually sufficient to produce extensor tonic convulsions in about half of the control animals; at 50 milliamperes, almost all control animals (receiving vehicle only) died.
as §1
(§3) From the above two test systems, the protective index (P.I.) can be calculated as the ratio of the horizontal screen ED50 over the ED50 of the electroshock assay. Thus, a large P.I. is indicative of a broader therapeutic range. A large P.I. thus provides a wide margin of safety allowing greater flexibility in treating epilepsy and other convulsive disorders.

[3] = tested on: Cox standard strain albino male mice (extensor tonic convulsions); experiment: electroshock induced convulsion inhibition assay (E.S.); type: in vivo; conditions: for ED50: Mus musculus, po, 1 h, by gavage, 60 minutes before 0.1 second, 50 milliampere corneal electroshock, inhibition of extensor tonic convulsions in one half of mice
Method: as §2

[4] = tested on: maximal electroshock seizure; conditions: racemic form; reported in U.S. Pat. No. 4,379,165; cited from earlier work
[5] = tested on: mice; experiment: protective index (P.I.), ratio of horizontal screen ED50 over electroshock ED50; type: in vivo; conditions: enantiomers compared with each other or the racemate
Method: as §2, §1, §3

[6] = tested on: seizures in man; conditions: cited from earlier work

## CC(NC(=O)c1ccc(N)cc1)c1ccccc1 (racemic) [(R,S), (R,S)-4-amino-N-(1-phenylethyl)benzamide]
[1]
  TD50 at 1 h: 105 mg/kg
[2]
  selectivity ratio at 1 h: 8.4
[3]
  ED50: 12.5 mg/kg
[4]
  protective index (P.I.), TD50 (Rotorod) to ED50 (maximal electroshock seizure): 9.48

## C[C@@H](NC(=O)c1ccc(N)cc1)c1ccccc1 [(R), (R)-4-amino-N-(1-phenylethyl)benzamide]
[1]
  TD50 at 1 h: 480 mg/kg
[2]
  selectivity ratio at 1 h: 27
[5]
  protective index (in words): increased protective index ratio
[3]
  ED50: 17.8 mg/kg

## C[C@H](NC(=O)c1ccc(N)cc1)c1ccccc1 [(S), (S)-4-amino-N-(1-phenylethyl)benzamide]
[1]
  TD50 at 1 h: 141 mg/kg
[2]
  selectivity ratio at 1 h: 14.1
[3]; (S)-isomer compared with (R)-isomer and racemate
  anticonvulsant potency (in words): more potent as an anticonvulsant agent than either the (R)-isomer or the racemate
[3]
  ED50: 10 mg/kg

## O=C1NC(=O)C(c2ccccc2)(c2ccccc2)N1 [phenytoin]
[6]; Gilman, Goodman, and Gilman, 6th Ed.
  plasma level at which seizures are controlled: ≥ 10 µg/mL
[6]
  plasma level at which ataxia is obvious: 30000 ng/mL
  plasma level at which lethargy is apparent: about 40 mcg./ml.
  plasma level at which nystagmus is seen: around 20 mcg./ml.
